Experimental findings from patent US10336732B2, “1-heterocyclyl isochromanyl compounds and analogs for treating CNS disorders” (Sunovion Pharmaceuticals Inc., priority 2015, dated 2019) are described below.

Each structure is given as a SMILES string.

For this experiment, the system named is mice. Put plainly: Neuropharmacological assay (SmartCube), behavioral signature of compound-treated mice. Format: in vivo. As to conditions: i.p. 15 min before behavioral test, most efficacious dose(s) of 3 doses. In short, it runs like this: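 Mice received compound i.p. in NMP/PEG/propylene glycol vehicle at 3 doses, 15 min before testing. Video-captured behavior was algorithmically compared with a reference-drug signature database.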

`Fc1cccc2c1CCO[C@H]2[C@H]1CCN1` [Compound I-95, (R)-2-((R)-5-fluoroisochroman-1-yl)azetidine]: the “AD: ADHD (probability that behavioral signature matches class)” value (“AD: ADHD” for short) was “+ (LOQ ≤ + <5%)”, the “AG: analgesic (probability that behavioral signature matches class)” value (“AG: analgesic” for short) is “+++ (25% ≤ +++ <50%)”, the “AX: anxiolytic (probability that behavioral signature matches class)” value (from here on “AX: anxiolytic”) was “++ (5% ≤ ++ <25%)” and the “CE: cognitive enhancer (probability that behavioral signature matches class)” value (shortened to “CE: cognitive enhancer”) is reported as “++ (5% ≤ ++ <25%)”. Moreover, the “DP: anti-depressant (probability that behavioral signature matches class)” value (“DP: anti-depressant” below) is given as “++ (5% ≤ ++ <25%)”, the “HA: hallucinogen (probability that behavioral signature matches class)” value (shortened to “HA: hallucinogen”) is on record as “+ (LOQ ≤ + <5%)”, the “MS: mood stabilizer (probability that behavioral signature matches class)” value (from here on “MS: mood stabilizer”) is on record as “+ (LOQ ≤ + <5%)” and the “PS: anti-psychotic (probability that behavioral signature matches class)” value (“PS: anti-psychotic” below) is “++ (5% ≤ ++ <25%)”. Besides, the “SD: sedative hypnotic (probability that behavioral signature matches class)” value (from here on “SD: sedative hypnotic”) is reported as “+ (LOQ ≤ + <5%)”, the “UN: uncharacterized CNS activity (probability that behavioral signature matches class)” value (from here on “UN: uncharacterized CNS activity”) is given as “+ (LOQ ≤ + <5%)” and the “XG: anxiogenic (probability that behavioral signature matches class)” value (“XG: anxiogenic” for short) was “+ (LOQ ≤ + <5%)”.

Consider `c1ccc2c(c1)CCCO[C@@H]2[C@@H]1CCCN1` [Compound I-97, (S)-2-((S)-1,3,4,5-tetrahydrobenzo[c]oxepin-1-yl)pyrrolidine], for which the “AD: ADHD” value is recorded as “+ (LOQ ≤ + <5%)”, the “AG: analgesic” value was “+++ (25% ≤ +++ <50%)”, the “AX: anxiolytic” value is “++ (5% ≤ ++ <25%)” and the “CE: cognitive enhancer” value is recorded as “++ (5% ≤ ++ <25%)”. Moreover, the “DP: anti-depressant” value is “++ (5% ≤ ++ <25%)”, the “HA: hallucinogen” value is “+ (LOQ ≤ + <5%)”, the “MS: mood stabilizer” value is recorded as “++ (5% ≤ ++ <25%)” and the “PS: anti-psychotic” value is listed as “+++ (25% ≤ +++ <50%)”. The “SD: sedative hypnotic” value is “++ (5% ≤ ++ <25%)”, the “UN: uncharacterized CNS activity” value is listed as “+ (LOQ ≤ + <5%)” and the “XG: anxiogenic” value is on record as “+ (LOQ ≤ + <5%)”.

For `c1ccc2c(c1)CCCO[C@H]2[C@@H]1CCCN1` [Compound I-98, (S)-2-((R)-1,3,4,5-tetrahydrobenzo[c]oxepin-1-yl)pyrrolidine], the “AD: ADHD” value was “+ (LOQ ≤ + <5%)”, the “AG: analgesic” value is recorded as “+ (LOQ ≤ + <5%)”, the “AX: anxiolytic” value is reported as “++ (5% ≤ ++ <25%)” and the “CE: cognitive enhancer” value is listed as “+ (LOQ ≤ + <5%)”. The “DP: anti-depressant” value is on record as “+++ (25% ≤ +++ <50%)”, the “HA: hallucinogen” value was “+ (LOQ ≤ + <5%)”, the “MS: mood stabilizer” value is “++ (5% ≤ ++ <25%)” and the “PS: anti-psychotic” value was “+++ (25% ≤ +++ <50%)”. Besides, the “SD: sedative hypnotic” value is “++ (5% ≤ ++ <25%)”, the “UN: uncharacterized CNS activity” value is recorded as “+ (LOQ ≤ + <5%)” and the “XG: anxiogenic” value was “+ (LOQ ≤ + <5%)”.

As to `c1ccc2c(c1)CCCO[C@@H]2[C@H]1CCCN1` [Compound I-99, (R)-2-((S)-1,3,4,5-tetrahydrobenzo[c]oxepin-1-yl)pyrrolidine], the “AD: ADHD” value is listed as “+ (LOQ ≤ + <5%)”, the “AG: analgesic” value is on record as “++ (5% ≤ ++ <25%)”, the “AX: anxiolytic” value is given as “++ (5% ≤ ++ <25%)” and the “CE: cognitive enhancer” value is recorded as “++ (5% ≤ ++ <25%)”. The “DP: anti-depressant” value is “+++ (25% ≤ +++ <50%)”, the “HA: hallucinogen” value was “+ (LOQ ≤ + <5%)”, the “MS: mood stabilizer” value is “+ (LOQ ≤ + <5%)” and the “PS: anti-psychotic” value was “++ (5% ≤ ++ <25%)”. Besides, the “SD: sedative hypnotic” value is given as “++ (5% ≤ ++ <25%)”, the “UN: uncharacterized CNS activity” value was “+ (LOQ ≤ + <5%)” and the “XG: anxiogenic” value is given as “+ (LOQ ≤ + <5%)”.

For `c1ccc2c(c1)CCCO[C@H]2[C@H]1CCCN1` [Compound I-100, (R)-2-((R)-1,3,4,5-tetrahydrobenzo[c]oxepin-1-yl)pyrrolidine], the “AD: ADHD” value was “+ (LOQ ≤ + <5%)”, the “AG: analgesic” value is listed as “++ (5% ≤ ++ <25%)”, the “AX: anxiolytic” value is on record as “++ (5% ≤ ++ <25%)” and the “CE: cognitive enhancer” value is recorded as “+++ (25% ≤ +++ <50%)”. Also, the “DP: anti-depressant” value was “++ (5% ≤ ++ <25%)”, the “HA: hallucinogen” value is listed as “+ (LOQ ≤ + <5%)”, the “MS: mood stabilizer” value is given as “++ (5% ≤ ++ <25%)” and the “PS: anti-psychotic” value is recorded as “+++ (25% ≤ +++ <50%)”. Moreover, the “SD: sedative hypnotic” value is given as “++ (5% ≤ ++ <25%)”, the “UN: uncharacterized CNS activity” value is on record as “+ (LOQ ≤ + <5%)” and the “XG: anxiogenic” value is “+ (LOQ ≤ + <5%)”.

As to `Cc1cccc2c1[C@@H]([C@@H]1CCCN1)OCCC2` [Compound I-101, (S)-2-((S)-9-methyl-1,3,4,5-tetrahydrobenzo[c]oxepin-1-yl)pyrrolidine], the “AD: ADHD” value was “+ (LOQ ≤ + <5%)”, the “AG: analgesic” value was “+ (LOQ ≤ + <5%)”, the “AX: anxiolytic” value was “++ (5% ≤ ++ <25%)” and the “CE: cognitive enhancer” value is reported as “+ (LOQ ≤ + <5%)”. Moreover, the “DP: anti-depressant” value is “++ (5% ≤ ++ <25%)”, the “HA: hallucinogen” value is “+ (LOQ ≤ + <5%)”, the “MS: mood stabilizer” value is on record as “+ (LOQ ≤ + <5%)” and the “PS: anti-psychotic” value is “+ (LOQ ≤ + <5%)”. Further, the “SD: sedative hypnotic” value is “+ (LOQ ≤ + <5%)”, the “UN: uncharacterized CNS activity” value was “+ (LOQ ≤ + <5%)” and the “XG: anxiogenic” value is listed as “+ (LOQ ≤ + <5%)”.

Take `Cc1cccc2c1[C@H]([C@@H]1CCCN1)OCCC2` [Compound I-102, (S)-2-((R)-9-methyl-1,3,4,5-tetrahydrobenzo[c]oxepin-1-yl)pyrrolidine]: the “AD: ADHD” value was “+ (LOQ ≤ + <5%)”, the “AG: analgesic” value is on record as “++ (5% ≤ ++ <25%)”, the “AX: anxiolytic” value is listed as “+++ (25% ≤ +++ <50%)” and the “CE: cognitive enhancer” value is reported as “++ (5% ≤ ++ <25%)”. The “DP: anti-depressant” value is given as “++ (5% ≤ ++ <25%)”, the “HA: hallucinogen” value is given as “+ (LOQ ≤ + <5%)”, the “MS: mood stabilizer” value is “++ (5% ≤ ++ <25%)” and the “PS: anti-psychotic” value is given as “++ (5% ≤ ++ <25%)”. For the same molecule, the “SD: sedative hypnotic” value is given as “+ (LOQ ≤ + <5%)”, the “UN: uncharacterized CNS activity” value is given as “+ (LOQ ≤ + <5%)” and the “XG: anxiogenic” value is given as “+ (LOQ ≤ + <5%)”.
